Source: patent US8119624B2, “Fused phenyl amido heterocyclic compounds” (Pfizer Inc., priority 2006, dated 2012)
pEC50: −log10 of the molar value. Read-outs that look alike come from different tables or passages of the source.

Target: T1, Full-length glucokinase (beta cell isoform) (Homo sapiens, UniProt P35557)
T1 construct: Full-length glucokinase (beta cell isoform) was His-tagged at N-terminus; His tag (N); made in house
T1 sequence (P35557 1-465): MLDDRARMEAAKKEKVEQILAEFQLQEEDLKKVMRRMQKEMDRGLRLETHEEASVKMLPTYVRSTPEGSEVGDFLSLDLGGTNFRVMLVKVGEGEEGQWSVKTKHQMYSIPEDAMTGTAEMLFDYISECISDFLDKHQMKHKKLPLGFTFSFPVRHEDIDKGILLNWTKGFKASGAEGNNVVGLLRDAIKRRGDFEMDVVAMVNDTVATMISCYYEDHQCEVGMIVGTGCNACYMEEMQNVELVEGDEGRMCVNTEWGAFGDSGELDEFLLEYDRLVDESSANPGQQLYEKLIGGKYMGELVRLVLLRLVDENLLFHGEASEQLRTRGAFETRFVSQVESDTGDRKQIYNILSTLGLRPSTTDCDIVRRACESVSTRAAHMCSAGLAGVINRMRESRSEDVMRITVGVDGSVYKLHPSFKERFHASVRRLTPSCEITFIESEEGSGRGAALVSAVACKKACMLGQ
Test: Glucokinase biochemical assay (PK/LDH-coupled, NADH depletion at 340 nm): % activation, EC50, % max activation
Settings: for activation at 10 µM: read-out: % Activation at 10 uM; for pEC50: read-out: EC50; for Emax: read-out: % Max Activation
In short: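 Activation expressed as (Va/Vo−1)×100, where initial rates with and without compound come from NADH depletion at 340 nm over 200–900 s. Enzyme is His-tagged human beta-cell GK, full length, run at room temperature in HEPES buffer with 1 mM ATP and 5 mM glucose. DMSO 1%.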

[1] = 10 uM compound, 5 mM glucose, % Activation=(Va/Vo−1)×100
[2] = 5 mM glucose, fitted maximum activation
[3] = compound at 10 uM, 5 mM glucose, 1 mM ATP, room temperature

SMILES | activation at 10 µM [1] | pEC50 (5 mM glucose, GK activation) | Emax [2] | also measured
Cc1ccc(NC(=O)c2cc(Oc3ccc(S(C)(=O)=O)cc3)cc3c2CCO3)nc1 [Example 6, 6-(4-Methanesulfonyl-phenoxy)-2,3-dihydrobenzofuran-4-carboxylic acid(5-methyl-pyridin-2-yl)-amide] | 87.6% | 5.02 | 123% | –
CN(C)C(=O)c1ccc(Oc2cc(C(=O)Nc3ccn(C)n3)cc3ccsc23)cc1F [Example 366, 7-(4-(Dimethylcarbamoyl)-3-fluorophenoxy)-N-(1-methyl-1H-pyrazol-3-yl)benzo[b]thiophene-5-carboxamide] | 6.4% | – | – | –
Cn1ccc(NC(=O)c2cc(Oc3ccc(S(C)(=O)=O)cc3)c3c(c2)C(=O)N(C2CC2)C3)n1 [Example 386, 2-Cyclopropyl-N-(1-methyl-1H-pyrazol-3-yl)-7-(4-(methylsulfonyl)-phenoxy)-3-oxoisoindoline-5-carboxamide] | – | – | – | pEC50 (5 mM glucose, 1 mM ATP, room temperature): < 5.00; activation at 10 µM [3]: 78.8%
Cn1ccc(NC(=O)c2cc(Oc3ccc(C(=O)NC4CC4)c(F)c3)c3c(c2)OC(C)(C)C3)n1 [Example 73, 4-(4-Cyclopropylcarbamoyl-3-fluoro-phenoxy)-2,2-dimethyl-2,3-dihydro-benzofuran-6-carboxylic acid(1-methyl-1H-pyrazol-3-yl)-amide] | 254% | 6.41 | 232% | –
Cc1ccnc(C(C)Oc2cc(C(=O)Nc3ccn(C)n3)cc3c2CC(C)(C)O3)c1 (centres unmarked) [Example 87, 2,2-Dimethyl-4-[1-(4-methyl-pyridin-2-yl)-ethoxy]-2,3-dihydro-benzofuran-6-carboxylic acid (1-methyl-1H-pyrazol-3-yl)-amide] | 73.6% | 5.07 | 136% | –
Cc1ccc(NC(=O)c2cc(Oc3ccc(C(=O)N(C)C)nc3)c3cc(C)oc3c2)nc1 [Example 277, N,N-Dimethyl-5-[(2-methyl-6-{[(5-methylpyridin-2-yl)amino]-carbonyl}-1-benzofuran-4-yl)oxy]pyridine-2-carboxamide] | 34.2% | – | – | –
CN(C)C(=O)c1ncc(Oc2cc(C(=O)Nc3ccn(C)n3)cc3c2CC(C)(C)O3)cn1 [Example 164, 5-[2,2-Dimethyl-6-(1-methyl-1H-pyrazol-3-ylcarbamoyl)-2,3-dihydro-benzofuran-4-yloxy]-pyrimidine-2-carboxylic acid dimethylamide] | 112% | 6.60 | 102% | –
Cc1ccc(NC(=O)c2cc(Oc3ccc(S(=O)(=O)C4CC4)c(F)c3)c3c(c2)OC(C)(CO)C3)nc1 (single isomer, unassigned; (-)) [Example 402, (−)-4-(4-Cyclopropanesulfonyl-3-fluoro-phenoxy)-2-hydroxymethyl-2-methyl-2,3-dihydro-benzofuran-6-carboxylic acid(5-methyl-pyridin-2-yl)-amide] | – | – | – | % Activation at 10 uM [3]: 19.9%
CN(C)C(=O)c1ccc(Oc2cc(C(=O)Nc3ccn(C)n3)cc3c2CC(C)(C)O3)c(Cl)c1 [Example 107, 4-(2-Chloro-4-dimethylcarbamoyl-phenoxy)-2,2-dimethyl-2,3-dihydro-benzofuran-6-carboxylic acid (1-methyl-1H-pyrazol-3-yl)-amide] | 173% | 7.01 | 163% | –
Cn1ccc(NC(=O)c2cc(Oc3ccc(S(C)(=O)=O)c(F)c3)c3c(c2)OC(C)(CO)C3)n1 (centres unmarked) [Example 232, 4-(3-Fluoro-4-methanesulfonyl-phenoxy)-2-hydroxymethyl-2-methyl-2,3-dihydro-benzofuran-6-carboxylic acid (1-methyl-1H-pyrazol-3-yl)-amide] | 188% | 6.41 | 184% | –
COCC1Cc2c(Oc3ccc(C(=O)N4CCC4)cc3)cc(C(=O)Nc3ccn(C)n3)cc2O1 (single isomer, unassigned; (+)) [Example 210, (+)-4-[4-(Azetidine-1-carbonyl)-phenoxy]-2-methoxymethyl-2,3-dihydro-benzofuran-6-carboxylic acid (1-methyl-1H-pyrazol-3-yl)-amide] | – | 6.07 | – | % Activation at 10 uM [1]: 130%; % Max Activation [2]: 143%
Cn1ccc(NC(=O)c2cc(Oc3ccc(C(=O)Nc4ccn(C)n4)c(F)c3)c3c(c2)OC(C)(C)C3)n1 [Example 65, 4-[3-Fluoro-4-(1-methyl-1H-pyrazol-3-ylcarbamoyl)-phenoxy]-2,2-dimethyl-2,3-dihydro-benzofuran-6-carboxylic acid(1-methyl-1H-pyrazol-3-yl)-amide] | 147% | 6.62 | 141% | –
COCC1(C)Cc2c(Oc3ccc(S(=O)(=O)C4CC4)cc3)cc(C(=O)Nc3cnn(C)n3)cc2O1 (single isomer, unassigned; (+)) [Example 250, (+)-4-(4-Cyclopropanesulfonyl-phenoxy)-2-methoxymethyl-2-methyl-2,3-dihydro-benzofuran-6-carboxylic acid (2-methyl-2H-[1,2,3]triazol-4-yl)-amide] | – | 6.38 | – | % Activation at 10 uM [1]: 227%; % Max Activation [2]: 246%
Cc1cc2c(Oc3ccc(S(=O)(=O)N(C)C)c(F)c3)cc(C(=O)Nc3ccn(C)n3)cc2o1 [Example 305, 4-{4-[(Dimethylamino)sulfonyl]-3-fluorophenoxy}-2-methyl-N-(1-methyl-1H-pyrazol-3-yl)-1-benzofuran-6-carboxamide] | 166% | 6.85 | 168% | –
Cc1cc2c(Oc3ccc(C(=O)N(C)C)c(F)c3)cc(C(=O)Nc3ccn(C)n3)cc2s1 [Example 362, 4-(4-(Dimethylcarbamoyl)-3-fluorophenoxy)-2-methyl-N-(1-methyl-1H-pyrazol-3-yl)benzo[b]thiophene-6-carboxamide] | 25.9% | – | – | –
COCC1(C)Cc2c(Oc3ccc(S(=O)(=O)C4CC4)cc3)cc(C(=O)Nc3ccn(C)n3)cc2O1 (single isomer, unassigned; (+)) [Example 248, (+)-4-(4-Cyclopropanesulfonyl-phenoxy)-2-methoxymethyl-2-methyl-2,3-dihydro-benzofuran-6-carboxylic acid (1-methyl-1H-pyrazol-3-yl)-amide] | – | 6.31 | – | % Activation at 10 uM [1]: 222%; % Max Activation [2]: 225%
Cc1cc2c(Oc3ccc(S(C)(=O)=O)cc3)cc(C(=O)Nc3ccccn3)cc2o1 [Example 257, 2-Methyl-4-(4-(methylsulfonyl)phenoxy)-N-(pyridin-2-yl)-benzofuran-6-carboxamide] | 111% | 5.85 | 119% | –
COCC1(C)Cc2c(Oc3ccc(S(=O)(=O)C4CC4)cc3)cc(C(=O)Nc3cnn(C)n3)cc2O1 (single isomer, unassigned; (+)) [Example 249, (+)-4-(4-Cyclopropanesulfonyl-phenoxy)-2-methoxymethyl-2-methyl-2,3-dihydro-benzofuran-6-carboxylic acid (2-methyl-2H-[1,2,3]triazol-4-yl)-amide] | – | 7.07 | 262% | % Activation at 10 uM [1]: 276%
Cn1ccc(NC(=O)c2cc(Oc3ccc(C(=O)N4CCOCC4)cc3F)c3c(c2)OC(C)(C)C3)n1 [Example 41, 4-[2-Fluoro-4-(morpholine-4-carbonyl)-phenoxy]-2,2-dimethyl-2,3-dihydro-benzofuran-6-carboxylic acid(1-methyl-1H-pyrazol-3-yl)-amide] | 138% | 5.85 | 141% | –
Cc1ccc(NC(=O)c2cc(Oc3ccc(C(=O)N(C)C)cc3)c3oc(C)cc3c2)nc1 [Example 339, 7-{4-[(Dimethylamino)carbonyl]phenoxy}-2-methyl-N-(5-methylpyridin-2-yl)-1-benzofuran-5-carboxamide] | -0.7% | – | – | –
C[C@@H](Cc1ccccc1)Oc1cc(C(=O)Nc2ccn(C)n2)cc2ccoc12 [Example 336, 7-[(1S)-1-Methyl-2-phenylethoxy]-N-(1-methyl-1H-pyrazol-3-yl)-1-benzofuran-5-carboxamide] | 8.4% | – | – | –
Cc1ccc(NC(=O)c2cc(Oc3ccc(C(=O)N4CCC4)c(F)c3)c3c(c2)OC(C)(CO)C3)nc1 (centres unmarked) [Example 240, 4-[4-(Azetidine-1-carbonyl)-3-fluoro-phenoxy]-2-hydroxymethyl-2-methyl-2,3-dihydro-benzofuran-6-carboxylic acid (5-methyl-pyridin-2-yl)-amide] | – | – | – | EC50 (EC50 (uM), 5 mM glucose, GK activation): 0.021 µM; activation at 10 µM: 83%; Emax: 94%
Cn1ccc(NC(=O)c2cc(Oc3ccc(C(=O)N4CC[C@H](F)C4)c(F)c3)c3c(c2)OC(C)(C)C3)n1 [Example 63, 4-[3-Fluoro-4-((S)-3-fluoro-pyrrolidine-1-carbonyl)-phenoxy]-2,2-dimethyl-2,3-dihydro-benzofuran-6-carboxylic acid(1-methyl-1H-pyrazol-3-yl)-amide] | 170% | 6.64 | 158% | –
